Source: patent US9427426B2 (priority 2008, dated 2016)
Where two headings read alike, the source gives them in different places.

Assays:
[1] = cited from earlier work; for solubility in water, in words: water (NAC: at 20° C.)
rat = conditions: cited from earlier work
[2] = test system: rats intoxicated with paracetamol; assay: Example 4: erdosteine i.v. vs NAC i.v. in rats intoxicated with paracetamol; type: in vivo, Wistar rats
Excerpt: Experiment has been carried on in parallel with experiment of example 3 and results of animals not intoxicated not treated (lot1) have been used as reference.
(§1) 3. […] NAC has been dissolved in bidistilled water.
Animals have been monitored as described in example 3.
Mortality has been recorded.

[3] = test system: rats intoxicated with lead (lead acetate); assay: Example 1: erdosteine per os vs NAC per os in rats intoxicated with lead; type: in vivo, Wistar rats; conditions: erdosteine 875 mg/kg or NAC 500 mg/kg per os once a day for 7 days
Protocol: (§2) 3. […] NAC has been mixed with bidistilled water, the resulting solution being administered in volume of 10 ml/kg.
(§3) 4. […] Erdosteine has been mixed with bidistilled water and sodium hydrogen carbonate equimolar, the resulting solution being administered in volume of 10 ml/kg.
(§4) Mortality has been recorded. […] Few animals have been collected urine eliminated spontaneously for Pb—Hg analysis. Animals have been sacrificed under general anesthesia with ether. 6 animals of each group (3 males and 3 females) have been randomly selected for macroscopic and microscopic anatomic-pathological examination.

[4] = test system: rats intoxicated with lead (lead acetate); assay: Example 2: erdosteine i.v. vs NAC i.v. in rats intoxicated with lead; type: in vivo, Wistar rats
Protocol: (§5) The animals have been randomly divided in 11 lots.
as §1
(§6) 4. […] Erdosteine has been solubilized in bidistilled water and sodium hydrogen carbonate equimolar, the resulting solution being administered in volume of 10 ml/kg. Preliminarily we tested the different molar ratios erdosteine/sodium hydrogen carbonate in a range between 0.5:1 and 1.5:1 and the volume to be solubilized. […] Animals Monitoring:
as §4

[5] = test system: rats intoxicated with mercury (mercury chloride); assay: Example 2: erdosteine i.v. vs NAC i.v. in rats intoxicated with mercury; type: in vivo, Wistar rats
Protocol: as §5, §1, §6, §4

[6] = test system: rats intoxicated with mercury (mercury chloride); assay: Example 1: erdosteine per os vs NAC per os in rats intoxicated with mercury; type: in vivo, Wistar rats; conditions: erdosteine 875 mg/kg or NAC 500 mg/kg per os once a day for 7 days
Protocol: as §2, §3, §4

[7] = paracetamol […] per os, erdosteine 350 mg/kg i.v. or NAC 114 mg/kg i.v. once a day for 7 days, 30 animals/lot
[8] = paracetamol intoxicated, erdosteine 350 mg/kg i.v. or NAC 114 mg/kg i.v., 7 days
[9] = survivors at 7 days, paracetamol intoxicated, erdosteine 350 mg/kg i.v. or NAC 114 mg/kg i.v.
[10] = Pb intoxicated (lead acetate 4665 mg/kg per os), 30 animals/lot
[11] = survivors after 7 days, Pb intoxicated
[12] = Pb intoxicated (lead acetate 4665 mg/kg per os), ERDO1 = erdosteine 350 mg/kg i.v. or NAC 114 mg/kg i.v. once a day for 7 days, 35 animals/lot
[13] = Pb intoxicated, ERDO1 = erdosteine 350 mg/kg i.v. or NAC 114 mg/kg i.v. once a day for 7 days
[14] = survivors after 7 days, Pb intoxicated, ERDO1 = erdosteine 350 mg/kg i.v. or NAC 114 mg/kg i.v. once a day
[15] = Hg intoxicated (mercury chloride 42 mg/kg per os), ERDO1 = erdosteine 350 mg/kg i.v. or NAC 114 mg/kg i.v. once a day for 7 days, 35 animals/lot
[16] = Hg intoxicated, ERDO1 = erdosteine 350 mg/kg i.v. or NAC 114 mg/kg i.v. once a day for 7 days
[17] = survivors after 7 days, Hg intoxicated, ERDO1 = erdosteine 350 mg/kg i.v. or NAC 114 mg/kg i.v. once a day
[18] = Hg intoxicated (mercury chloride 42 mg/kg per os), 30 animals/lot
[19] = survivors after 7 days, Hg intoxicated

Molecule: OCC(S)CS (centres unmarked) [Dimercaprol, 2,3,Dimercapto1-propanol]
- solubility in water, in words [1]: hardly soluble
- LD50 i.v. (rat; rat, i.v.): 105 mg/kg

Molecule: CC(=O)N[C@@H](CS)C(=O)O [NAC, N-Acetylcysteine]
- Mortality percentual [2, 7]: 20%
- Total mortality [2, 7]: 6/30
- Renal aggression (urine summary), in words ([2]; paracetamol intoxicated, erdosteine 350 mg/kg i.v. or NAC 114 mg/kg i.v.): antagonized
- Urine summary: Bil. [2, 8]: 3 mg/dL
- Urine summary: Chet [2, 8]: neg
- Urine summary: Density [2, 8]: 1015
- Urine summary: Erythrocyte [2, 8]: 25 µL⁻¹
- Urine summary: Glucose [2, 8]: neg
- Urine summary: Leuc [2, 8]: 25 µL⁻¹
- Urine summary: Prot. [2, 8]: 75 mg/dL
- Urine summary: UBG [2, 8]: 1 mg/dL
- Urine summary: pH [2, 8]: 6.8
- ALT [2, 9]: 206.6^1
- AST [2, 9]: 42.6^2
- HCT [2, 9]: 41.7^1
- PLT [2, 9]: 550.8^1
- RBC [2, 9]: 7.20^1
- Urea [2, 9]: 74.76^1
- Uric acid [2, 9]: 2.574^1
- Mortality in percent [3, 10]: 30%
- Mortality total [3, 10]: 9
- Anatomical pathology: lesions (macroscopic and microscopic examination) ([3]; Pb intoxicated): did not improve lesions
- Pb in urine, Pb mean values ([3]; Pb intoxicated, GS MS Varian 4100): 13.2 mg/L
- Creatinine mean values [3, 11]: 0.66 ^3 mK/dl
- Haematocrit mean values [3, 11]: 41.42^3
- Haemoglobin mean values [3, 11]: 13.58^3 g/dl
- Leucocytes mean values [3, 11]: 6.82^3
- Urea mean values [3, 11]: 104.15 ^3 mg/dl
- Uric acid mean value [3, 11]: 2.36 ^1 mg/dl
- erythrocytes mean values [3, 11]: 6.55^3 *10^6/mm^3
- Mortalitaty total [4, 12]: 28 ^3
- Mortality in percent [4, 12]: 80%
- Anatomical pathology: lesions [4, 13]: did not improve lesions
- Pb in urine, Pb mean values [4, 13]: 12.9 mg/L
- Creatinine mean values [4, 14]: 0.78 ^4 mK/dl
- Haematocrit mean values [4, 14]: 35.48 ^3
- Haemoglobin mean values [4, 14]: 15.86 ^3 g/dl
- Leucocytes mean values [4, 14]: 16.36 ^3
- Urea mean values [4, 14]: 80.98 ^4 mg/dl
- Uric acid mean value [4, 14]: 2.13 ^4 mg/dl
- erythrocytes mean values [4, 14]: 6.93 ^3 *10^6/mm^3
- solubility in water, in words [1]: slightly soluble
- Mortalitaty total [5, 15]: 30 ^3
- Mortality in percent [5, 15]: 85.7%
- Anatomical pathology: lesions [5, 16]: least severe damages
- Hg in urine mean values [5, 16]: 13.9 mg/L
- Creatinine mean values [5, 17]: 1.06 ^4 mK/dl
- Haematocrit mean values [5, 17]: 38.97 ^3
- Haemoglobin mean values [5, 17]: 14.57 ^3 g/dl
- Leucocytes mean values [5, 17]: 10.5 ^3
- Urea mean values [5, 17]: 79.52 ^4 mg/dl
- Uric acid mean value [5, 17]: 2.02 ^4 mg/dl
- erythrocytes mean values [5, 17]: 6.76 ^3 *10^6/mm^3
- LD50 i.v. (rat; rat, in vivo, iv): 1140 mg/kg
- LD50 per os (rat; rat, in vivo): 5050 mg/kg
- Mortality in percent [6, 18]: 33.3%
- Mortality total [6, 18]: 10^2^
- Anatomical pathology: lesions (macroscopic and microscopic examination) ([6]; Hg intoxicated): less important lesions
- Hg in urine mean values ([6]; Hg intoxicated, GS MS Varian 4100): 11.5 mg/L
- Creatinine mean values [6, 19]: 0.56 ^3 mK/dl
- Haematocrit mean values [6, 19]: 41.50^3
- Haemoglobin mean values [6, 19]: 13.58^3 g/dl
- Leucocytes mean values [6, 19]: 6.72^3
- Urea mean values [6, 19]: 85.45 ^3 mg/dl
- Uric acid mean value [6, 19]: 2.38 ^1 mg/dl
- erythrocytes mean values [6, 19]: 6.92^3 *10^6/mm^3

Molecule: [Cl][Hg][Cl] [mercury chloride]
- solubility in water ([1]; water at 20° C.): 7.4 g/100 ml
- LD50 per os (rat; per os, rat where given): 42 mg/kg

Molecule: Lead acetate trihydrate
- LD50 per os (rat; per os, rat where given): 4665 mg/kg
